Measurements: PMC7503597 (International Journal of Molecular Sciences, 2020)

Molecular target: T1, D3R-ELucC (Homo sapiens, UniProt P35462)
T1 construct: gene DRD3
Assay: cell-based
Settings: HEK-293T, read-out: β-Arrestin2 Recruitment / Emax [%]

T1 sequence (P35462 whole entry): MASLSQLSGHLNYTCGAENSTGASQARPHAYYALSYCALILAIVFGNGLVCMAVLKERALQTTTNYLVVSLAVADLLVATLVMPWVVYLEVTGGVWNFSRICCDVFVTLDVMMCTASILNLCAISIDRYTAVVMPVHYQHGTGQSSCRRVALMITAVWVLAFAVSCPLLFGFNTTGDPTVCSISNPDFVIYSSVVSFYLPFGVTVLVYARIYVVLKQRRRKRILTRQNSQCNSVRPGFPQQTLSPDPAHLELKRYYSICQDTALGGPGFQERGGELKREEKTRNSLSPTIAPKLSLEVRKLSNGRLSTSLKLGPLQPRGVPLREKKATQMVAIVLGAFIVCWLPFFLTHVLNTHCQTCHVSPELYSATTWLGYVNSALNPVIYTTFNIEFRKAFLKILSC

- Emax: -26 ± 8%
SMILES: CCN1CCC[C@H]1CNC(=O)c1cc(S(N)(=O)=O)ccc1OC [S-(−)-sulpiride]
